Results reported in PMC7534351, “Imidazothiazole-based potent inhibitors of V600E-B-RAF kinase with promising anti-melanoma activity: biological and computational studies” (Journal of Enzyme Inhibition and Medicinal Chemistry, 2020).
Like-named read-outs stand apart in the source and are kept apart here.

How the values were obtained:
RAF1 = RAF1 (Homo sapiens, UniProt P04049); experiment: Cell-free kinase profiling, RAF1; assay type: biochemical; conditions: for One-dose (1 µM) results against RAF1 (% inhibition) / inhibition at 1 µM: mean of duplicate assays ± SEM; for inhibition at 1 µM: read-out: One-dose (1 µM) results against RAF1 (% inhibition)
Procedure: (§1) In a final volume of 25 µL, the tested kinase (5–10 mU) was incubated with 25 mM Tris pH 7.5, 0.02 mM EDTA, 0.66 mg/mL myelin basic protein, 10 mM magnesium acetate and [γ^33P-ATP] (specific activity approx. 500 cpm/pmol, concentration as required). The reaction was initiated by the addition of the Mg-ATP mix. After incubation for 40 min at room temperature, the reaction was stopped by the addition of 5 µL of a 3% phosphoric acid solution. 10 µL of the reaction was then spotted onto a P30 filtermat and washed three times for 5 min in 75 mM phosphoric acid and once in methanol before drying and scintillation counting.

V600E-B-RAF [1] = biological target: T1, V600E-B-RAF (Homo sapiens, UniProt P15056, V600E); experiment: Cell-free kinase profiling, V600E-B-RAF; assay type: biochemical; conditions: for One-dose (1 µM) results against V600E-B-RAF (% inhibition) / inhibition at 1 µM: mean of duplicate assays ± SEM; for inhibition at 1 µM: read-out: One-dose (1 µM) results against V600E-B-RAF (% inhibition)
Procedure: The reaction was initiated by the addition of the Mg-ATP mix. After incubation for 40 min at room temperature, the reaction was stopped by the addition of 5 µL of a 3% phosphoric acid solution. 10 µL of the reaction was then spotted onto a P30 filtermat and washed three times for 5 min in 75 mM phosphoric acid and once in methanol before drying and scintillation counting.
Target sequence in this assay (P15056 whole entry V600E): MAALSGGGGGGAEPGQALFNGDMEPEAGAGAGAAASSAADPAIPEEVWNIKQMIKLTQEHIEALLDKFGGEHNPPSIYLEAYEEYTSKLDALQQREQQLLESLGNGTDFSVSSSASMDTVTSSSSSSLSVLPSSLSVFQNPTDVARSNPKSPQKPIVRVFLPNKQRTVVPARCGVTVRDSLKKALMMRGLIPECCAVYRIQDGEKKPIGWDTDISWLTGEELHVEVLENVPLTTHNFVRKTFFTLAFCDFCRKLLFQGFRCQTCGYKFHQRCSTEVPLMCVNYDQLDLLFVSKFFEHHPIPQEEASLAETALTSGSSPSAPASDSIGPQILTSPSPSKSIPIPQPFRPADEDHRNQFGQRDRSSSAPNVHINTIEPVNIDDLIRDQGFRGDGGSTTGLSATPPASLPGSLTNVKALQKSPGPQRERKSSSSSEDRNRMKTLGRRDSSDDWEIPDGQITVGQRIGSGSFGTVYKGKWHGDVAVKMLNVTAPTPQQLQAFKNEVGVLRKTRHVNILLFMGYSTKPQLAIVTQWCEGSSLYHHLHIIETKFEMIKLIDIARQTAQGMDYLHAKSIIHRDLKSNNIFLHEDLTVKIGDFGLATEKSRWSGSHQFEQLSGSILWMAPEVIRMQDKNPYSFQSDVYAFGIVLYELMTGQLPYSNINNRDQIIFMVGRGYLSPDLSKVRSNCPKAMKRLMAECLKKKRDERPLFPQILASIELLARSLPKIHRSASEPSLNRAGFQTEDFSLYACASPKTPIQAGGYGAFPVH

ErbB2 = ErbB2 (Homo sapiens, UniProt P04626); experiment: Kinase panel, ErbB2; assay type: biochemical; conditions: mean ± SEM
Procedure: as §1

LCK = LCK (Homo sapiens, UniProt P06239); experiment: Kinase panel, LCK; assay type: biochemical; conditions: mean ± SEM
Procedure: as §1

ErbB4 = ErbB4 (Homo sapiens, UniProt Q15303); experiment: Kinase panel, ErbB4; assay type: biochemical; conditions: mean ± SEM
Procedure: as §1

MEK2 = MEK2 (Homo sapiens, UniProt P36507); experiment: Kinase panel, MEK2; assay type: biochemical; conditions: mean ± SEM
Procedure: as §1

FLT3 = FLT3 (Homo sapiens, UniProt P36888); experiment: Kinase panel, FLT3; assay type: biochemical
Procedure: as §1

PI3Kα = PI3Kα (Homo sapiens, UniProt P42336); experiment: Kinase panel, PI3Kα; assay type: biochemical; conditions: mean ± SEM
Procedure: as §1

cKIT = cKIT (Homo sapiens, UniProt P10721); experiment: Kinase panel, cKIT; assay type: biochemical; conditions: mean ± SEM
Procedure: as §1

JAK1 = JAK1 (Homo sapiens, UniProt P23458); experiment: Kinase panel, JAK1; assay type: biochemical; conditions: mean ± SEM
Procedure: as §1

[2] = test system: CCD1106K normal skin epithelial cell line; experiment: MTT assay, CCD1106K normal skin cells; assay type: cell-based; conditions: 48 h, mean of triplicate assays ± SEM, read-out: Antiproliferative activity (IC50 value, µM) CCD1106K normal skin cells
Procedure: (§2) The melanoma and normal skin cell lines were maintained in DMEM including 10% foetal bovine serum (FBS) and 1% penicillin/streptomycin in a humid atmosphere containing 5% carbon dioxide at 37 °C. […] The cells were incubated for 48 h following treatment with the test compounds. The cellular viability was assessed by the conventional 3–(4,5-dimethylthiazol-2-yl)-2,5-diphenyltetrazolium bromide (MTT) reduction assay. MTT assays were carried out with CellTiter 96® (Promega) according to the manufacturer’s instructions. The absorbance at 590 nm was recorded using EnVision 2103 (Perkin Elmer; Boston, MA, USA). The IC50 values were calculated using GraphPad Prism 4.0 software. Triplicate testing was performed.

EGFR = EGFR (Homo sapiens, UniProt P00533); experiment: Kinase panel, EGFR; assay type: biochemical; conditions: mean ± SEM
Procedure: as §1

V600E-B-RAF [3] = biological target: T1, V600E-B-RAF; experiment: In-cell kinase assay (MEK1 phosphorylation ELISA in MEF-V600E-B-RAF:ER cells); assay type: cell-based; conditions: MEF cell line, phospho-MEK1 readout, 90 min compound incubation; read-out: in-cell V600E-B-RAF kinase inhibition IC50
Procedure: MEF-V600E-B-RAF:ER cells were plated in Dulbecco’s modified eagle medium (DMEM) supplemented with 10% FCS in multiwell cell culture plates. Compound incubation (90 min at 37 °C) was done in serum-free medium. […] For stimulation, cells were treated with 1 µM hydroxytamoxifen for 1 h at room temperature. After cell lysis, quantification of MEK1 phosphorylation was assessed in 96-well plates via sandwich-ELISA using a MEK1 specific capture antibody and a phospho-MEK1-Ser218/222 specific detection antibody.

[4] = test system: MDA-MB-435 melanoma cell line; experiment: MTT assay, MDA-MB-435; assay type: cell-based; conditions: Homo sapiens, 48 h, mean of triplicate assays ± SEM, read-out: Antiproliferative activity (IC50 value, µM) MDA-MB-435
Procedure: as §2

B-RAF^wt = B-RAF^wt (Homo sapiens, UniProt P15056); experiment: Kinase panel, B-RAF wt; assay type: biochemical; conditions: mean ± SEM
Procedure: as §1

PI3K-C2α = PI3K-C2α (Homo sapiens, UniProt O00443); experiment: Kinase panel, PI3K-C2α; assay type: biochemical; conditions: mean ± SEM
Procedure: as §1

TRKA = TRKA (Homo sapiens, UniProt P04629); experiment: Kinase panel, TRKA; assay type: biochemical; conditions: mean ± SEM
Procedure: as §1

KDR = KDR (Homo sapiens, UniProt P35968); experiment: Kinase panel, KDR; assay type: biochemical; conditions: mean ± SEM
Procedure: as §1

mTOR = mTOR (Homo sapiens, UniProt P42345); experiment: Kinase panel, mTOR; assay type: biochemical; conditions: mean ± SEM
Procedure: as §1

BTK = BTK (Homo sapiens, UniProt Q06187); experiment: Kinase panel, BTK; assay type: biochemical; conditions: mean ± SEM
Procedure: as §1

ABL = ABL (Homo sapiens, UniProt P00519); experiment: Kinase panel, ABL; assay type: biochemical; conditions: mean ± SEM
Procedure: as §1

DMPK = DMPK (Homo sapiens, UniProt Q09013); experiment: Kinase panel, DMPK; assay type: biochemical; conditions: mean ± SEM
Procedure: as §1

[5] = test system: UACC-62 melanoma cell line; experiment: MTT assay, UACC-62; assay type: cell-based; conditions: Homo sapiens, 48 h, mean of triplicate assays ± SEM, read-out: Antiproliferative activity (IC50 value, µM) UACC-62
Procedure: as §2

PDGFRβ = PDGFRβ (Homo sapiens, UniProt P09619); experiment: Kinase panel, PDGFRβ; assay type: biochemical; conditions: mean ± SEM
Procedure: as §1

JAK2 = JAK2 (Homo sapiens, UniProt O60674); experiment: Kinase panel, JAK2; assay type: biochemical; conditions: mean ± SEM
Procedure: as §1

30-kinase panel = 30-kinase panel as a whole; assay type: biochemical; conditions: 1 µM; all panel kinases apart from V600E-B-RAF and FLT3
Procedure: as §1

MEK1 = MEK1 (Homo sapiens, UniProt Q02750); experiment: Kinase panel, MEK1; assay type: biochemical; conditions: mean ± SEM
Procedure: as §1

JNK1(α1) = JNK1(α1) (Homo sapiens, UniProt P45983); experiment: Kinase panel, JNK1(α1); assay type: biochemical; conditions: mean ± SEM
Procedure: as §1

A-RAF = A-RAF (Homo sapiens, UniProt P10398); experiment: Kinase panel, A-RAF; assay type: biochemical; conditions: mean ± SEM
Procedure: as §1

VRK1 = VRK1 (Homo sapiens, UniProt Q99986); experiment: Kinase panel, VRK1; assay type: biochemical; conditions: mean ± SEM
Procedure: as §1

Aurora-A = Aurora-A (Homo sapiens, UniProt O14965); experiment: Kinase panel, Aurora-A; assay type: biochemical; conditions: mean ± SEM
Procedure: as §1

four melanoma cell lines = experiment: MTT assay, four melanoma cell lines (range); assay type: cell-based; conditions: range over A375, MDA-MB-435, SK-MEL-28, UACC-62; read-out: IC50 against four melanoma cell lines (range)
Procedure: as §2

A375 melanoma cell line = experiment: MTT assay, A375; assay type: cell-based; conditions: Homo sapiens, A-375, 48 h, mean of triplicate assays ± SEM, read-out: Antiproliferative activity (IC50 value, µM) A375
Procedure: as §2

ALK = ALK (Homo sapiens, UniProt Q9UM73); experiment: Kinase panel, ALK; assay type: biochemical; conditions: mean ± SEM
Procedure: as §1

[6] = test system: SK-MEL-28 melanoma cell line; experiment: MTT assay, SK-MEL-28; assay type: cell-based; conditions: Homo sapiens, 48 h, mean of triplicate assays ± SEM, read-out: Antiproliferative activity (IC50 value, µM) SK-MEL-28
Procedure: as §2

ROS = ROS (Homo sapiens, UniProt P08922); experiment: Kinase panel, ROS; assay type: biochemical; conditions: mean ± SEM
Procedure: as §1

FMS = FMS (Homo sapiens, UniProt P07333); experiment: Kinase panel, FMS; assay type: biochemical; conditions: mean ± SEM
Procedure: as §1

[7] = 10-dose mode, read-out: IC50 value (nM) against V600E-B-RAF
[8] = from the IC50 values of Table 1, used for QSAR
[9] = 10-dose mode, read-out: IC50 value (nM) against RAF1

Sequence of RAF1 (P04049 whole entry): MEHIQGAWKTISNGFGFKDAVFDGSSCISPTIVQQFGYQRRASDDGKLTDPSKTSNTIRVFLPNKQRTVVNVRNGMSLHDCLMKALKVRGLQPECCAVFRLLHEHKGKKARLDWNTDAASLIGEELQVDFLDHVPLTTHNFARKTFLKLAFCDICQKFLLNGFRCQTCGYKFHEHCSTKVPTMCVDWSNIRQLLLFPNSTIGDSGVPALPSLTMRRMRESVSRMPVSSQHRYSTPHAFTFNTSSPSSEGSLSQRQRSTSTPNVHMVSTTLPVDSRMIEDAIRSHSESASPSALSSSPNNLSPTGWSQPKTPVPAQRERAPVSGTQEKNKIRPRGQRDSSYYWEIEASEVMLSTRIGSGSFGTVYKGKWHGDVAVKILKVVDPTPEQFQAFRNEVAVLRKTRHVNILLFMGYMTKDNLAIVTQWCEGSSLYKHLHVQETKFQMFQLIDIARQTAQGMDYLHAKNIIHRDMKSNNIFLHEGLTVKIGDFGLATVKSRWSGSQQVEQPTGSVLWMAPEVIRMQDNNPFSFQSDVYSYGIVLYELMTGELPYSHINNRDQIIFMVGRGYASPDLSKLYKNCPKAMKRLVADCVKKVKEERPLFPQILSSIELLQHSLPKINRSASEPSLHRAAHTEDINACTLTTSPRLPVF
Sequence of FLT3 (P36888 27-993, species assumed): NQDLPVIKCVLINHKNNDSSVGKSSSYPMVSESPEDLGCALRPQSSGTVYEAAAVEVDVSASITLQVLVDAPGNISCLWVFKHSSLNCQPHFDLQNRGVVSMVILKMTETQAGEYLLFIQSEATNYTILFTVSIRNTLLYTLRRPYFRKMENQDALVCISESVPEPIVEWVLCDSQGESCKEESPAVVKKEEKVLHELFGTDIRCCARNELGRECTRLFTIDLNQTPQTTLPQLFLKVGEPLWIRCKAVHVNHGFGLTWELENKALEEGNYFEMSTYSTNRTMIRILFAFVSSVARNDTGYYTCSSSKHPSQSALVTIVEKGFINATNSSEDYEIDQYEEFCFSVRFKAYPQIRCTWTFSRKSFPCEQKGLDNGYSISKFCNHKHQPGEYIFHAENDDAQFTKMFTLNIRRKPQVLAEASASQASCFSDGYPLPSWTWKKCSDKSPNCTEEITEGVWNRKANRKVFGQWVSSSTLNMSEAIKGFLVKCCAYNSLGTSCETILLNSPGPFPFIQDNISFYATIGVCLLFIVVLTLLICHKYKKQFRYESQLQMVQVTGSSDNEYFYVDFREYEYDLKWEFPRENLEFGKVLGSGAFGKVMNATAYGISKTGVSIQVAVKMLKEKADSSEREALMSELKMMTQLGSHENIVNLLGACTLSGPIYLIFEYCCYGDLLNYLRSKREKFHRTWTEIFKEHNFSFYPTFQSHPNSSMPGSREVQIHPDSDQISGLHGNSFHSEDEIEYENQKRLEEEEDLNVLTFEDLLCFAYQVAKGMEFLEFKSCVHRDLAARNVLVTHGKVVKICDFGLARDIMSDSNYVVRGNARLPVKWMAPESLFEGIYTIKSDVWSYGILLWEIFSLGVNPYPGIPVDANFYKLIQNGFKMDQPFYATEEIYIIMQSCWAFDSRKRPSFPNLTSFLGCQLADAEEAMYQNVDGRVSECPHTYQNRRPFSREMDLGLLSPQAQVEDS
Sequence of VRK1 (Q99986 whole entry): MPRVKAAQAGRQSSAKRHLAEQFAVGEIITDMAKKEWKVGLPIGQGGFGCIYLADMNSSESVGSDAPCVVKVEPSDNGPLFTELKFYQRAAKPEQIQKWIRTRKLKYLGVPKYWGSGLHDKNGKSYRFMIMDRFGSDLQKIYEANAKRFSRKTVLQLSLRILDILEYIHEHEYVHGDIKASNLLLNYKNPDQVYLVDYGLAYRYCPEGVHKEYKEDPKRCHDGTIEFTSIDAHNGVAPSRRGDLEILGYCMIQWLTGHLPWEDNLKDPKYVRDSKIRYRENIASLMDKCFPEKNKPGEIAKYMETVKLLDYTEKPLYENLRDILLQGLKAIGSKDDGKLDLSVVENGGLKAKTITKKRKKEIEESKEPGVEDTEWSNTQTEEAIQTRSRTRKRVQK
Sequence of JAK1 (P23458 whole entry): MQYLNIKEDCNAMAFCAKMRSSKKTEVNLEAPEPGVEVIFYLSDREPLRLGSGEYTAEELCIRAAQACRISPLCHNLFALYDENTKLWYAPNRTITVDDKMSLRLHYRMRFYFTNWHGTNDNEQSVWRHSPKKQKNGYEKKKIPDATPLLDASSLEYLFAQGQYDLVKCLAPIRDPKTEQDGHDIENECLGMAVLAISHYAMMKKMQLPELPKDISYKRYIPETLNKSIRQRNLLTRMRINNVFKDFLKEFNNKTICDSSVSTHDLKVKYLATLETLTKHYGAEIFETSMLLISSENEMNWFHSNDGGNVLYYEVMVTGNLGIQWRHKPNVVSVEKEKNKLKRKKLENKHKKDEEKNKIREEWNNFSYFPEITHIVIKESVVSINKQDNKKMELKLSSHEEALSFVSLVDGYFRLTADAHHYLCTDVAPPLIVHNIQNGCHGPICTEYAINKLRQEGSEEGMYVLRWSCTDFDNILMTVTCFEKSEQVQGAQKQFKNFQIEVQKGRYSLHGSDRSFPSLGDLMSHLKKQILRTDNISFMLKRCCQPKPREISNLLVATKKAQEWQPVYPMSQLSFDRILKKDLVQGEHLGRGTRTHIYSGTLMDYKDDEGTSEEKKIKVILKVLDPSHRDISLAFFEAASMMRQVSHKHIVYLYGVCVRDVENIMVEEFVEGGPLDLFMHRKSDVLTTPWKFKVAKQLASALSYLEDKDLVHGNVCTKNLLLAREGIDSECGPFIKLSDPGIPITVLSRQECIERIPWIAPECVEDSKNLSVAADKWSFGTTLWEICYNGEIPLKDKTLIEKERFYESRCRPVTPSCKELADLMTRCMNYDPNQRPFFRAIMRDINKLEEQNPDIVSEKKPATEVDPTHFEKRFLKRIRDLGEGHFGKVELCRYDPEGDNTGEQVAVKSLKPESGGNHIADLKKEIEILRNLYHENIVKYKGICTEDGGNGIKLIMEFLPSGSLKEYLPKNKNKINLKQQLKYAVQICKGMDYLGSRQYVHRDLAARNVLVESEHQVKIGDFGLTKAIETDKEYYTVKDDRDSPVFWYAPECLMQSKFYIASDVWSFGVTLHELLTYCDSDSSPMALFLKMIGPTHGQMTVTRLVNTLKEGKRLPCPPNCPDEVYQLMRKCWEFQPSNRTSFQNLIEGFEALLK
Sequence of PDGFRβ (P09619 33-1106): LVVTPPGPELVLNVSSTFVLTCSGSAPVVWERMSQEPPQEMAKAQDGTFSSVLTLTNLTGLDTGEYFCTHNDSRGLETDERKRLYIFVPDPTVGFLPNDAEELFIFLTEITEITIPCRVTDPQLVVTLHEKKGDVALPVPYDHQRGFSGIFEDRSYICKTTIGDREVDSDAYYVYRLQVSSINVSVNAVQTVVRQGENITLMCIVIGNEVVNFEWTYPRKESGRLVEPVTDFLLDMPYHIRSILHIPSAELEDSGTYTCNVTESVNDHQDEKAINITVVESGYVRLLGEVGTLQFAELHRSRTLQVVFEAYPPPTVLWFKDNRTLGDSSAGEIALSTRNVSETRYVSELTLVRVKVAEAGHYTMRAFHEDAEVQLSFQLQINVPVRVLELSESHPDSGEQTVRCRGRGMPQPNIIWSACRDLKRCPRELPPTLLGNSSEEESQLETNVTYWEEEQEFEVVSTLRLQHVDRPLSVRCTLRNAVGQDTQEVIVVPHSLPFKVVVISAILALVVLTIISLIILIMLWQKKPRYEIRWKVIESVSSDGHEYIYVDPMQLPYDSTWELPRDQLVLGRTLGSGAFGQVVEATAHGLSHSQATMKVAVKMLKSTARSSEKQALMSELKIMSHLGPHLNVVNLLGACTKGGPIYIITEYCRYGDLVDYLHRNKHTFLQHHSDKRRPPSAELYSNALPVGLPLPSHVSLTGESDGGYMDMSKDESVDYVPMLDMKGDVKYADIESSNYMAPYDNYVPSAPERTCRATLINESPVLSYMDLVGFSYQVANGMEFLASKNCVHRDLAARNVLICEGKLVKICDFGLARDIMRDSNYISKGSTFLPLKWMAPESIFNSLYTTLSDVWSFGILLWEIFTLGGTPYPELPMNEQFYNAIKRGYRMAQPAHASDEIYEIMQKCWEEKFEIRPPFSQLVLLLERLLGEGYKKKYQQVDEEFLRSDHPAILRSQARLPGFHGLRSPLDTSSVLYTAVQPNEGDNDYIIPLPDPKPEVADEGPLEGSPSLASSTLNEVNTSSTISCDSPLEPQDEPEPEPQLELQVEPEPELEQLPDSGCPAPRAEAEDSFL
Sequence of B-RAF^wt (P15056 whole entry): as the sequence (P15056 whole entry V600E) above, with E600V counted along it

COc1cccc(-c2nc3sccn3c2-c2ccnc(NCCNC(=O)c3ccccc3)n2)c1 [Compound 1u] was tested, and the “One-dose (1 µM) results against RAF1 (% inhibition)” value (RAF1) was 74.00% ± 0.64%, the “One-dose (1 µM) results against V600E-B-RAF (% inhibition)” value (V600E-B-RAF [1]) was 95.03% ± 0.66% and the IC50 (V600E-B-RAF [1]; [7]) was 45.1 nM. For the same compound, the “pIC50 (V600E- B-RAF)” value (V600E-B-RAF [1]; [8]) was 7.346.
With COc1cccc(-c2nc3sccn3c2-c2ccnc(NCCNC(=O)c3ccccc3O)n2)c1 [Compound 1v] the “One-dose (1 µM) results against RAF1 (% inhibition)” value (RAF1) was 59.25% ± 2.53%, the “One-dose (1 µM) results against V600E-B-RAF (% inhibition)” value (V600E-B-RAF [1]) was 90.82% ± 0.25% and the IC50 (V600E-B-RAF [1]; [7]) was 100 nM. For the same compound, the “pIC50 (V600E- B-RAF)” value (V600E-B-RAF [1]; [8]) was 7.000.
Compound O=C(NCCNc1nccc(-c2c(-c3cccc(O)c3)nc3sccn23)n1)c1ccccc1 [Compound 1zb] has an inhibition at 1 µM (ErbB2) of 2.17%, an inhibition at 1 µM (LCK) of 12.4% and an inhibition at 1 µM (ErbB4) of 13.7%. For the same compound, the inhibition at 1 µM (MEK2) was 26.6%, the inhibition at 1 µM (FLT3; 1 µM, mean ± SEM) was 73.1% and the IC50 (FLT3; read-out: IC50 (nM) against FLT3) was 838 nM. The inhibition at 1 µM (PI3Kα) was 5.85%, the inhibition at 1 µM (cKIT) was 9.63% and the inhibition at 1 µM (JAK1) was -0.26%. For the same compound, the IC50 [2] was 9.26 ± 0.38 µM, the inhibition at 1 µM (EGFR) was 19.9% and the IC50 (V600E-B-RAF [3]) was 190 nM. It also gave an IC50 [4] of 0.59 ± 0.06 µM, an inhibition at 1 µM (B-RAF^wt) of 23.4% and an inhibition at 1 µM (PI3K-C2α) of 50%. For the same compound, the inhibition at 1 µM (TRKA) was 46.7%, the inhibition at 1 µM (KDR) was 18.8% and the inhibition at 1 µM (mTOR) was 7.83%. For the same compound, the inhibition at 1 µM (BTK) was 17%, the inhibition at 1 µM (ABL) was 7.57% and the inhibition at 1 µM (DMPK) was 0.84%. For the same compound, the IC50 [5] was 0.18 ± 0.02 µM, the inhibition at 1 µM (PDGFRβ) was 12.5% and the inhibition at 1 µM (JAK2) was 3.76%. The “inhibitory effect against all the other kinases of the panel” value (30-kinase panel) was “less than 50%”, the inhibition at 1 µM (MEK1) was 1.5% and the inhibition at 1 µM (JNK1(α1)) was 0.76%. The inhibition at 1 µM (A-RAF) was 9.14%, the inhibition at 1 µM (RAF1) was 99.4% and the IC50 (RAF1; from the IC50 values of Table 1, used for QSAR, read-out: pIC50 (RAF1) (converted)) was 8.2 nM. For the same compound, the inhibition at 1 µM (VRK1) was 3.93%, the inhibition at 1 µM (Aurora-A) was 49.8% and the IC50 (four melanoma cell lines) was 180 to 590 nM. It also gave an IC50 (A375 melanoma cell line) of 0.46 ± 0.03 µM, an inhibition at 1 µM (ALK) of 41.2% and an IC50 [6] of 0.38 ± 0.05 µM. For the same compound, the inhibition at 1 µM (ROS) was 2.02%, the inhibition at 1 µM (FMS) was 12.2% and the inhibition at 1 µM (V600E-B-RAF [1]) was 99.5%. For the same compound, the IC50 (V600E-B-RAF [1]; [7]) was 0.978 nM.
In the case of O=C(NCCNc1nccc(-c2c(-c3cccc(O)c3)nc3sccn23)n1)c1ccccc1O [Compound 1zc], the “One-dose (1 µM) results against RAF1 (% inhibition)” value (RAF1) is reported as 99.32% ± 0.23%, the IC50 (RAF1; [9]) is reported as 10.5 nM and the “pIC50 (RAF1)” value (RAF1; [8]) is reported as 7.979. The “One-dose (1 µM) results against V600E-B-RAF (% inhibition)” value (V600E-B-RAF [1]) was 101.07% ± 1.53%, the IC50 (V600E-B-RAF [1]; [7]) was 1.9 nM and the “pIC50 (V600E- B-RAF)” value (V600E-B-RAF [1]; [8]) was 8.721.
Compound O=C(NCCNc1nccc(-c2c(-c3cccc(O)c3)nc3sccn23)n1)c1ccc(N2CCOCC2)c(C(F)(F)F)c1 [Compound 1zg] has an inhibition at 1 µM (RAF1) of 90.8%, an IC50 (RAF1; [9]) of 158 nM and an inhibition at 1 µM (V600E-B-RAF [1]) of 99%. For the same compound, the IC50 (V600E-B-RAF [1]; from the IC50 values of Table 1, used for QSAR, read-out: pIC50 (V600E- B-RAF) (converted)) was 15.8 nM.
CNC(=O)c1cc(Oc2ccc(NC(=O)Nc3ccc(Cl)c(C(F)(F)F)c3)cc2)ccn1 [Sorafenib, sorafenib, reference compound] gave an IC50 [2] of 11.6 ± 0.46 µM, an IC50 [4] of 3.16 ± 0.2 µM and an IC50 [5] of 1.95 ± 0.08 µM. It also gave an IC50 (four melanoma cell lines) of 1950 to 5450 nM and an IC50 (A375 melanoma cell line) of 5.45 ± 0.53 µM.
